Experimental data as given in US20220339178A1, “COMPOSITIONS AND METHODS FOR COGNITIVE PROTECTION OF POLLINATORS AGAINST PESTICIDES” (priority 2019, published 2022).

Experiments:
[1] = tested on: butyrylcholinesterase (BChE); conditions: literature report; cited from earlier work
AChE = conditions: literature report; cited from earlier work
[2] = tested on: Honeybees (Apis mellifera scutellata); test: Classical conditioning of the proboscis extension response (PER): learning, 24 h memory retention, latency; flavonoids vs imidacloprid; format: in vivo
Method: Honeybees (Apis mellifera scutellata) were captured from established hives at the Apiary of the Pontificia Universidad Javeriana (Bogota, Colombia). Foragers were collected while leaving to forage between 8:00 am and 10:00 am (Matsumoto et al., J Neurosci Methods. 211(1):159-67. 2012). Bees were maintained in individual plastic chambers under laboratory conditions (photoperiod followed seasonal pattern; relative humidity: 63%; temperature: 18° C.). Food was provided once a day in a volume of 20 μL and varied in composition according to experimental treatments.
Control (2M sugar water): fed once a day (20 μL) for three consecutive days;
Quercetin (6.6 mM quercetin (Sigma-Aldrich: Q4951)-sucrose-water with DMSO 1% (Sigma-Aldrich: D8418): fed once a day for three days;
Rutin (1 mM rutin (Sigma-Aldrich R5143)-sucrose-water with DMSO 1%: fed once a day for three days;
Imidacloprid (1.16 nM Imidacloprid (Bayer)-sucrose-water: fed as a single dose (20 μL) 1.5 h before training;
Quercetin-Imidacloprid: bees received the quercetin treatment (see above) and were fed Imidacloprid 1.5 h before training; and
Rutin-Imidacloprid: bees received the rutin treatment (see above) and were fed Imidacloprid 1.5 h before training.
Bees were trained using classical conditioning of the proboscis extension response (PER), a broadly used method to study learning and memory in bees. Briefly, bees received a soft current of clean air for 15 seconds to allow bees to accommodate. Then a soft current of 1-hexanol (Sigma-Aldrich: 471402) was injected for 10 seconds. Six seconds after injection of 1-hexanol, one of the antennae was stimulated with sucrose water (50% w/w), which leads to the reflexive extension of the proboscis, and the bee was allowed to drink for 4 seconds. Thus, the reward and the stimulus overlapped for four seconds. This sequence, recognized as a training trial, was repeated eight times. Time was determined using a metronome (2 Hz). Memory retention was tested 24 hours after the eight training trials. […] 12 bees were trained each session. Training was conducted by an experimenter blind to treatment.
Learning was assessed from the total number of conditioned responses across the eight trials. Thus, each bee received a learning score between 0-7 (by definition, bees cannot show a learned response at the first trial). After 24 h, memory retention was assessed as the response to the presentation of 1-hexanol without a sucrose reward. Latency of response was quantified as the time between the onset of 1-hexanol stimulation and the onset of a response that led to a full extension of proboscis. Only bees being responsive to sucrose water across all training trials and the memory retention test were considered for analyses. Learning scores were compared across treatments using a Mann-Whitney test as data were not normally distributed (Shapiro-Wilk W test for the hypothesis that the data is from a Normal distribution: P<0.05 for all treatments). Comparisons of the learning score of bees across all treatments relative to Control bees were conducted using the Steel method adjusted as one or two-tailed tests. Additional post hoc comparisons were performed between Imid and Quer+Imid bees and between Imid and Rut+Imid bees. Memory retention was compared across groups using an overall Chi-Square test and independent tests for planned comparisons were performed using adjusted Wald tests for proportions. In all cases error due to multiple comparisons was controlled using the False Discovery Rate one stage method and adjusted p-values (q-values) are presented (Benjamini & Hochberg, Journal of the Royal Statistical Society. Series B (Methodological), 57(1):289-300. 1995; Pike, N., Methods in Ecology and Evolution, 2(3):278-282. 2011). All analyses were conducted using JMP v.14.0 (SAS Institute Inc). […]

O=c1c(O)c(-c2ccc(O)c(O)c2)oc2cc(O)cc(O)c12 [Quercetin]
inhibition of butyrylcholinesterase (BChE) [1]: concentration-dependent inhibition ability
inhibition of AChE (AChE): concentration-dependent inhibition ability
memory retention, proportion difference relative to Control bees (Adjusted Wald test) ([2]; conditioned PER after 24 h): −0.13
latency of response during learning acquisition relative to Control bees ([2]; honey bees): not significantly different from Control
learning scores relative to bees in the Imid group ([2]; honey bees prophylactically fed flavonoid for three days, then imidacloprid 1.5 h before training): significantly higher learning scores
learning scores relative to Control bees ([2]; honey bees, 8 trials, score 0-7, quercetin 6.6 mM or rutin 1 mM once a day for three days, imidacloprid 1.16 nM 20 μL 1.5 h before training): significantly higher learning scores
